Drawing on paper PMC4452296, “Comparison of Paeoniflorin and Albiflorin on Human CYP3A4 and CYP2D6” (Evidence-based Complementary and Alternative Medicine : eCAM, 2015), this text covers IC50 for two compounds.

In one assay the target is CYP3A4 (Homo sapiens, UniProt P08684). Put plainly: biochemical.
The next assay deals with CYP2D6 (Homo sapiens, UniProt P10635). As to the kind of experiment: biochemical.

What is called IC50 is the concentration at which inhibition is half-maximal. Read a high IC50 as a need for much substance.

Chain of CYP3A4 (P08684 2-503): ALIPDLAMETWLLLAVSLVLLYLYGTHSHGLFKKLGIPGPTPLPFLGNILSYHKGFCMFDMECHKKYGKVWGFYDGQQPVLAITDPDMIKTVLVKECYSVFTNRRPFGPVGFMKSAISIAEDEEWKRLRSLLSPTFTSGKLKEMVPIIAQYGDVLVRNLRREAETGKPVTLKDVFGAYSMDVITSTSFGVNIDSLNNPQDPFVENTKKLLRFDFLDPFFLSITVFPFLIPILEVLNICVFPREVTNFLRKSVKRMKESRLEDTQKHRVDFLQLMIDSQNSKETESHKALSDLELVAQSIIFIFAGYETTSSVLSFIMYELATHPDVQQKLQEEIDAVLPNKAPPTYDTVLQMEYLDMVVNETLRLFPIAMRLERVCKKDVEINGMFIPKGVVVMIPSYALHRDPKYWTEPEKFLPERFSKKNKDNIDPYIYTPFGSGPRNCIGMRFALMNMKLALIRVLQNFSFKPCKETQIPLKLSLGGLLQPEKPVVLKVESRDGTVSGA
Chain of CYP2D6 (P10635 whole entry): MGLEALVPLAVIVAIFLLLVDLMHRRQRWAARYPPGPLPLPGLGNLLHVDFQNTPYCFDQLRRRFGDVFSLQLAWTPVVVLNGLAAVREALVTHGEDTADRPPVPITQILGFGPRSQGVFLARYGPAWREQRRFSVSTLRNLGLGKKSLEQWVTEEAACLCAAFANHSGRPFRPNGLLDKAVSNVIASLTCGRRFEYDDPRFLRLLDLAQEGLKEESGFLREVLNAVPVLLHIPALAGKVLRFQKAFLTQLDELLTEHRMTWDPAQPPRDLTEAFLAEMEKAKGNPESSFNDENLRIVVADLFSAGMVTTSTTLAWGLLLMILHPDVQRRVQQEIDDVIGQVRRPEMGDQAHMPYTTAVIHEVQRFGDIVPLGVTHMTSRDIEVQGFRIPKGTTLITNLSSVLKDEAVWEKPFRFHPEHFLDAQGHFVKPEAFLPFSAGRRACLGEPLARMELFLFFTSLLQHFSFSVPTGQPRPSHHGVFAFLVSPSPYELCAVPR

`CC12CC(O)C3CC1(O[C@@H]1O[C@H](CO)[C@@H](O)[C@H](O)[C@H]1O)C3(COC(=O)c1ccccc1)C(=O)O2` (stereo partly shown) [albiflorin]: the results for the IC50 against CYP3A4 and against CYP2D6 were 11.4 mM and 14.4 mM, respectively.
In the same order, the values of `C[C@@]12C[C@@]3(O)O[C@@H](O1)[C@]1(COC(=O)c4ccccc4)[C@H]3C[C@@]12O[C@@H]1O[C@H](CO)[C@@H](O)[C@H](O)[C@H]1O` [paeoniflorin] are 4.79 mM and 12.7 mM.
